Measurements from patent US5801150A, “Aminopyri(mi)dine derivatives combined with amino acids, and pharmacological activities thereof” (priority 1993, dated 1998).

Assays:
[1] = Sensing superoxide anion: auto-oxidation of adrenaline (adrenochrome at 480 nm); format: biochemical; conditions: for % of inhibition: pH 10.2; for IC50: superoxide anion, adrenaline auto-oxidation, read-out: concentration at which there is obtained 50% inhibition
Text: The methods used can produce selectively a chosen type of FR (superoxide anion or hydroxyl radical). The detector must be able to detect proportionally all the FR formed.
Step of production and detection of FR: the radicular source supplies the free radical which will react with a detector to form a modified detector. This latter could be quantified directly or after interaction with an analytic reaction complement by spectrophotometric analysis. [drawing 9]
Determination either of the percent of sensing or of the speed constant of the sensor: a sensor enters into competition with the detector to form a modified sensor. There is obtained a reduction of the quantity of the modified detector which gives us, after mathematical analysis, either the speed constant of the reaction of the sensor with the radical, or the percentage of sensing of this radical by the sensor.
The methodology is the auto-oxidation of adrenaline: adrenaline plays the double role of producing superoxide anion and serving as a detector. Adrenaline which is stable at acid pH, oxidizes spontaneously at alkaline pH. This complex reaction gives after several steps, adrenochrome. The superoxide anion participates in it as an oxidizing agent. The formation of adrenochrome is followed at 480 nm. [drawing 10] Capture of the superoxide anion: oxidation of adrenaline
The reaction medium is constituted by 3.1 ml of sodium carbonate (0.05M) at pH 10.2 containing EDTA (0.1 mM). The oxidation reaction is initiated by the addition of 0.2 ml of adrenaline (0.01M, in 0.02N HCl). The formation of adrenochrome is followed for 2 mins. at 480 nm. The compounds to be studied are added with the aide of 0.02 ml of DMSO, before the addition of adrenaline.
The capacity of the substances to sense the superoxide anion is expressed in terms of percentage of inhibition (%I). [formula] A0 and A are respectively the absorbance of the detector modified in the absence and in the presence of the derivative studied.

[2] = Capture of the hydroxyl radical: Fenton reaction, oxidative degradation of deoxyribose (532 nm); format: biochemical; conditions: for k Obtained (speed constant of the reaction with OH°): individual values of 2 or 3 tests; for k Obtained (speed constant of the reaction with OH°) / Mean k (speed constant of the reaction with OH°): pH 7.4, 37° C.; for Mean k (speed constant of the reaction with OH°): mean of 2 or 3 tests; for speed constant with respect to mannitol: ratio to mannitol
Text: The Fenton reaction, the catalytic decomposition of hydrogen peroxide (H2 O2) by the action of Fe^2+, has been used to produce the hydroxyl radical Because of its widespread use, the test of oxidative degradation of deoxyribose has been selected for our study. The hydroxyl radical generated by the Fenton reaction degrades the deoxyribose and produces malonaldehyde which forms a colored complex with thiobarbituric acid. This complex is quantified by colorimetry at a wavelength of 532 nm. This methodology can be represented by the following scheme: [drawing 11] The speed constants have been determined by using the Halliwell method with modifications. The final kinematic equation is the following [formula] A and A0 : absorbances at 532 nm of the complex in the presence and in the absence of the studied derivative. kS and kd : speed constants of the reaction of OH° with the studied derivative and deoxyribose. S and D: concentrations of studied derivative and of deoxyribose. kx : term representing the reactivity of the radical OH° reacting with reagents of the Fenton reaction. In tracing the straight line 1/A as a function of the concentration S, the speed constant kS is determined. […] The reaction is initiated by the addition of the iron EDTA complex (0.13 mM (NH4)2 Fe(SO4)2; 0.143 mM EDTA). After 15 mins. of incubation at 37° C., the reaction is stopped by the addition of 1.5 ml of cold trichloroacetic acid (TCA) (2.8%). 1 ml of this solution is mixed with 1 ml of thiobarbituric acid (TBA) (1% in 0.05M NaOH) and heated for 15 mins. at 100° C. Then, the specimens are cooled and quantified at 532 nm.

[3] = literature value; cited from earlier work
[4] = topical application, cited from earlier work
keratinocytes, hair = conditions: topical, cited from earlier work
[5] = apart from SOD; cited from earlier work

For `CSCCC(NC(C)=O)C(=O)Nc1cc(N2CCCCC2)nc(NC(=O)C(CCSC)NC(C)=O)[n+]1[O-]` (racemic) [Disubstituted (N-acetyl-methionine), diamide of 2,4-diamino-6-piperidinopyrimidine-3-oxide and N-acetyl-D,L-methionine], the “% of inhibition” value ([1]; Conc. 0.1 mM) was 10.56%, the “% of inhibition” value ([1]; Conc. 0.2 mM) was 15.62% and the “% of inhibition” value ([1]; Conc. 0.3 mM) was 25.99%. The “% of inhibition” value ([1]; Conc. 0.4 mM) was 30.77%, the “% of inhibition” value ([1]; Conc. 0.5 mM) was 38.71% and the “% of inhibition” value ([1]; Conc. 0.6 mM) was 43.75%. For the same compound, the “% of inhibition” value ([1]; Conc. 0.7 mM) was 53.22%, the IC50 [1] was roughly 670 µM and the “k Obtained (speed constant of the reaction with OH°)” value (from here on “k Obtained”) [2] was 19.40-19.50 10^9 M^-1.s^-1. The “Mean k (speed constant of the reaction with OH°)” value (from here on “Mean k”) [2] was 19.45 10^9 M^-1.s^-1 and the “speed constant with respect to mannitol” value [2] was “more than eleven times”.
With `CSCCC(NC(C)=O)C(=O)Nc1cc(N2CCCCC2)nc(N)[n+]1[O-]` (racemic) [Monosubstituted (N-acetyl-methionine), amide of 2,4-diamino-6-piperidinopyrimidine-3-oxide and N-acetyl-D,L-methionine] the “% of inhibition” value ([1]; Conc. 0.1 mM) was 7.57%, the “% of inhibition” value ([1]; Conc. 0.2 mM) was 14.49% and the “% of inhibition” value ([1]; Conc. 0.3 mM) was 19.38%. The “% of inhibition” value ([1]; Conc. 0.4 mM) was 25.71%, the “% of inhibition” value ([1]; Conc. 0.5 mM) was 27.17% and the “% of inhibition” value ([1]; Conc. 0.6 mM) was 32.01%. The “% of inhibition” value ([1]; Conc. 0.6 mM, listed as monosubstituted compound) was 32%, the “k Obtained” value [2] was 13.10-13.40 10^9 M^-1.s^-1 and the “Mean k” value [2] was 13.25 10^9 M^-1.s^-1.
For `OC[C@@H](O)[C@@H](O)[C@H](O)[C@H](O)CO` [Mannitol], the “k Obtained” value [2] is listed as 1.52-1.84 10^9 M^-1.s^-1, the “Mean k” value [2] is listed as 1.68 10^9 M^-1.s^-1 and the “Literature k (speed constant of the reaction with OH°)” value (shortened to “Literature k”) [3] is listed as 1.8 10^9 M^-1.s^-1.
For `CSCC[C@H](N)C(=O)O` [Methionine], the “k Obtained” value [2] is given as 5.02-5.36 10^9 M^-1.s^-1, the “Mean k” value [2] is given as 5.19 10^9 M^-1.s^-1 and the “Literature k” value [3] is given as 6.5 10^9 M^-1.s^-1.
For `Nc1cc(N2CCCCC2)nc(N)[n+]1[O-]` [Minoxidil, 2,4-diamino-6-piperidinopyrimidine-3-oxide], the “average quantity of the applied dose reaching the blood stream” value ([4]; average) is given as 1.4%, the “quantity of the applied dose reaching the blood stream, range” value ([4]; range of values) is given as 0.3 to 4.5% and the “growth of keratinocytes and of hair” value (keratinocytes, hair; certain subjects having androgenic alopecy) is given as “stimulates the in vitro and in vivo growth of keratinocytes, and the growth of hair”. For the same compound, the “time of use to appearance of the growth phenomenon” value (keratinocytes, hair; varies as a function of the subjects) was “about four months (or more)”, the “% of inhibition” value ([1]; Conc. 0.05 mM) was 11.71% and the “% of inhibition” value ([1]; Conc. 0.1 mM) was 25.62%. For the same compound, the “% of inhibition” value ([1]; Conc. 0.2 mM) was 41.86%, the “% of inhibition” value ([1]; Conc. 0.3 mM) was 57.20% and the “% of inhibition” value ([1]; Conc. 0.5 mM) was 74.12%. The “% of inhibition” value ([1]; Conc. 0.6 mM) was 82.70%, the IC50 [1] was roughly 250 µM and the “k Obtained” value [2] was 10.20-11.40 10^9 M^-1.s^-1. The “Mean k” value [2] was 10.80 10^9 M^-1.s^-1.
In the case of `CSCC[C@H](NC(C)=O)C(=O)O` [N-acetyl-methionine], the inhibition ([1]; 2 mM) is reported as 10%, the “% of inhibition” value ([1]; Conc. 0.6 mM) is reported as “not observed activity” and the “Mean k” value [2] is reported as 6.02 10^9 M^-1.s^-1. The “Literature k” value [3] was 6.7 10^9 M^-1.s^-1.
With `Nc1cc(N2CCCCC2)nc(N)n1` [Reduced minoxidil] the “k Obtained” value [2] was 8.47-9.16 10^9 M^-1.s^-1, the “Mean k” value [2] was 8.81 10^9 M^-1.s^-1 and the “speed constant with respect to mannitol” value [2] was “five times”.
With `N[C@@H](CS)C(=O)O` [cysteine] the “% of inhibition” value ([1]; cysteine 0.005 mM) was 6.52%, the “% of inhibition” value ([1]; cysteine 0.008 mM) was 8.58% and the “% of inhibition” value ([1]; cysteine 0.01 mM) was 9.61%. For the same compound, the “% of inhibition” value ([1]; cysteine 0.03 mM) was 31.72%, the “% of inhibition” value ([1]; cysteine 0.04 mM) was 34.45% and the “% of inhibition” value ([1]; cysteine 0.05 mM) was 46.71%. The “% of inhibition” value ([1]; cysteine 0.06 mM) was 51.93%, the “% of inhibition” value ([1]; cysteine 0.07 mM) was 57.17% and the IC50 [1] was roughly 51 µM. The “reactivity with respect to the superoxide anion” value [5] was “most reactive with respect to the superoxide anion”.
